# Experimental data reported in patent US8966812B2, “Trap for bed bugs and the like” (Susan McKnight, Inc., priority 2007, dated 2015).
# Legend:
# Format in all cases: in vivo, cimex lectularius
# bed bugs [1] = experiment: Example 3: carbon dioxide synergism with experimental lure composition, climb-up pitfall trap in infested apartment building, 14 days
# Protocol: A molded polypropylene dog dish was turned upside down to form the climb-up pitfall trap 1 as described in Example 2. The trap 1 was positioned on the floor of an apartment building known to be infested by bed bugs, and was tested without any lure. This served as the control test illustrated as Test 6 in FIG. 7. The trap was loaded with a heat blanket (heat source 8). The heat blanket generated temperatures of 44.8 to 47.3 degrees Celsius (112.6 to 117.1 degrees Fahrenheit). The trap 1 with heat source 8 was tested with results shown as Test 2 in FIG. 7. The trap was then loaded with a flexible tube connected to a 5 lbs. compressed carbon dioxide cylinder (carbon dioxide source 9). The carbon cylinder emitted 500 ml/min of carbon dioxide through a tube to the area over the center stage 7 of the trap. The trap with carbon dioxide source 9 was tested with the results shown as Test 4 in FIG. 7. The trap was then loaded with an experimental lure comprising: 100 micrograms of L-lactic acid, 33 micrograms of propionic acid, 0.33 micrograms of butyric acid, 0.33 micrograms of valeric acid and 100 micrograms of octenol (i.e., “lure composition 10”), the experimental lure being combined in a fragrance releasing gel. The trap with experimental lure (lure composition 10) was tested with the results indicated in Test 5 of FIG. 7. […]
# bed bugs [2] = experiment: Example 2: climb-up pitfall trap with heat source and lures incl. experimental lure composition, infested apartment building, 14 days; conditions: trap with heat source plus lure, tested several times for 14 days, FIG. 6
# Description: A molded polypropylene dog dish was turned upside down to form climb-up pitfall trap 1 as described in Example 1. The exterior surface 2 was covered with Pellon® featherweight fusible interfacing to form a climbing surface. […] The trap 1 was positioned on the floor of an apartment building known to be infested by bed bugs. As indicated in the bar chart of FIG. 6, the trap 1 was loaded with a heat blanket (heat source 8). The heat blanket generated temperatures of 44.8 to 47.3 degrees Celsius (112.6 to 117.1 degrees Fahrenheit). The trap with heat source 8 was tested several times for 14 days with a modest mean trap count. This test served as a control test. The trap was then loaded with an octenol lure without L-lactic acid. The heat blanket again generated heat. […] The trap was then loaded with an octenol and L-lactic acid lure, in place of the octenol lure. The heat blanket again generated heat. […] The trap was then loaded with an experimental lure consisting of a combination of 100 micrograms of L-lactic acid, 33 micrograms of propionic acid, 0.33 micrograms of butyric acid, 0.33 micrograms of valeric acid and 100 micrograms of octenol (lure composition 10), the experimental lure being combined in a fragrance releasing gel. The heat blanket again generated heat. […]
# bed bugs [3] = experiment: Example 1: climb-up pitfall trap with heat source and lures in an infested apartment building, 14 days; conditions: trap with heat source 44.8 to 47.3 degrees Celsius plus lure, FIG. 5
# Description: The exterior surface 2 was covered with cloth, the cloth being attached by masking tape, to form a climbing surface. Precipice 3 was formed by the outer edge of the dog dish. Interior surface 4 was formed by the underside of the outer rim of the dog dish which faces upward when the dog dish is turned upside down. Receptacle 5 was formed along the inside of the precipice 3 by the interior surface 4 and the retaining surface 6, effectively forming a capture moat area. The retaining surface 6 was formed by the underside of the inner bowl walls of the dog dish. Center stage 7 was formed by the underside of the bowl portions of the dog dish. The trap 1 was positioned on the floor of an apartment building known to be infested by bed bugs. Referring to the chronological chart of FIG. 5, the trap 1 was initially loaded with a heat blanket (heat source 8) alone. The heat blanket generated temperatures of 44.8 to 47.3 degrees Celsius (112.6 to 117.1 degrees Fahrenheit). The trap 1 with heat source 8 was tested for 14 days. The trap 1 was then loaded with an octenol lure in addition to the heat source 8, but excluding lactic acid. The heat blanket again generated heat. The trap 1 was then loaded with an octenol and L-lactic acid lure as described above, in place of the octenol lure. The heat blanket again generated heat.
Compound,"number of bed bugs caught, times the control (trap only) (bed bugs [1]; carbon dioxide 500 ml/min alone, Test 4 of FIG. 7) [times]","number of bed bugs caught, times the control test (trap only) (bed bugs [1]; heat source plus carbon dioxide 500 ml/min, Test 3 of FIG. 7) [times]",mean trap count compared with other traps (bed bugs [2]),bed bugs caught compared with control test (trap with heat source alone) (bed bugs [3])
"O=C=O [carbon dioxide source 9, carbon dioxide]",~3,~4,,
"C=CC(O)CCCCC (stereo not shown) [octenol lure, 1-octen-3-ol]",,,less effective results than heat alone,caught more bugs
